{
  "source": "patent EP0348735A2",
  "about": "“5-Chlor-4-cyano-thiazol-2-yl-oxyacetic-acid amide” (BAYER AG, priority 1988, dated 1990)",
  "system": "Testpflanzen",
  "assay": "Pre-emergence test (herbicidal activity)",
  "type": "in vivo",
  "conditions": "seeds watered with the preparation 24 h after sowing, rated after three weeks, compared in words with the prior-art comparison substance 2-(Benzthiazol-2-yl-oxy)-essigsäure-N-methyl-anilid, no numbers given",
  "source_text": "Zur Herstellung einer zweckmäßigen Wirkstoffzubereitung vermischt man 1 Gewichtsteil Wirkstoff mit der angegebenen Menge Lösungsmittel, gibt die angegebene Menge Emulgator zu und verdünnt das Konzentrat mit Wasser auf die gewünschte Konzentration.\nSamen der Testpflanzen werden in normalen Boden ausgesät und nach 24 Stunden mit der Wirkstoffzubereitung begossen. Dabei hält man die Wassermenge pro Flächeneinheit zweckmäßigerweise konstant. Die Wirkstoffkonzentration in der Zubereitung spielt keine Rolle, entscheidend ist nur die Aufwandmenge des Wirkstoffs pro Flächeneinheit. Nach drei Wochen wird der Schädigungsgrad der Pflanzen bonitiert in % Schädigung im Vergleich zur Entwicklung der unbehandelten Kontrolle.",
  "data": [
    {"smiles": "CN(C(=O)COc1nc(C#N)c(Cl)s1)c1ccccc1", "note": "[Beispiel 1, 2-(5-Chlor-4-cyanothiazol-2-yl-oxy)-essigsäure-N-methyl-anilid]", "values": [
      {"measurement": "Wirksamkeit (Schädigungsgrad der Pflanzen in % Schädigung im Vergleich zur unbehandelten Kontrolle)", "value": "deutliche Überlegenheit in der Wirksamkeit"}
    ]}
  ]
}
